# Reference: PubChem BioAssay AID488890 (Southern Research Specialized Biocontainment Screening …, 2010)
# Inconclusive results are not listed. Calls of active or inactive are those of the source. How the calls were made is not given here.
# System: Mycobacterium tuberculosis non-replicating, growth inhibition
# Assay: growth inhibition of non-replicating M. tuberculosis (AID 488890)
row,SMILES,IC50
1,O=C(CNC(=O)c1cccc(F)c1)N/N=C/c1ccc([N+](=O)[O-])s1,10.6 µM (inactive)
2,Cc1ccc(C)c(-c2nnc(NC(=O)c3ccco3)o2)c1,0.66 µM
3,O=C(N/N=C/c1ccc([N+](=O)[O-])s1)c1cccc(Br)c1,4.95 µM
4,COc1ccccc1NC(=O)c1cnc(SC)nc1,22.3 µM (inactive)
5,COc1ccc2c(c1)sc(=N)n2C,19.3 µM (inactive)
6,CC(C)(C)c1ccc(Cn2c(=N)n(CC(O)c3ccco3)c3ccccc32)cc1 (centres undefined),7.36 µM
7,Cc1ccc(C(=O)NCCOc2cccc(C)c2)cc1,3.92 µM
8,CC(NC(=O)OCc1ccccc1)c1ccccc1 (centres undefined),0.82 µM
9,O=C(N/N=C/c1ccc(Br)s1)c1cccnc1,9.43 µM
10,O=C(COc1ccccc1)Nc1ccc(F)cc1,8.5 µM
11,Cc1c(Cl)cccc1NC(=O)C(=O)NNC(=O)c1ccccc1F,1.59 µM
12,CC1CCN(C(=O)COC(=O)c2cc3ccccc3cc2O)CC1,2.04 µM
13,Oc1oc(-c2ccco2)nc1C=Nc1cccc(Cl)c1,7.88 µM
14,CC(C)c1ccc(OCC(=O)NCc2ccccc2)cc1,19.2 µM (inactive)
15,CCCCCn1nnc2c(=O)oc3ccccc3c21,1.2 µM
16,Cc1ccc(CCC(=O)Nc2ccccc2F)s1,26.2 µM (inactive)
17,CCCCN(C)C(=O)c1cc2cc3ccc(OC)cc3nc2s1,6.04 µM
18,N#CC(C#N)=c1ccc2c(c1)NC1(CCCCC1)N=2,5.71 µM
19,CC1=NN(C(=O)c2csc(C)c2)C(O)(C(F)(F)F)C1 (centres undefined),0.49 µM
20,O=C(O)c1[nH]c(=O)[nH]c(=O)c1F,5.7 µM
21,CCOCC(=O)Nc1nc2ccc(C)cc2s1,2.06 µM
22,O=C1NC2(CCC3(CC2)OCCO3)NN1c1ccc(Cl)cc1,0.84 µM
23,COc1cccc(OCCNC(=O)c2cc([N+](=O)[O-])cc([N+](=O)[O-])c2)c1,0.49 µM
24,COc1ccc(C2=Nc3ccccc3OC2)cc1,5.2 µM

row,SMILES,IC50
1,O=Cc1ccc(-c2ccc(Cl)cc2Cl)[nH]1,17.3 µM (inactive)
2,N=c1n(Cc2ccc(Cl)cc2)c2ccccc2n1CC(O)COc1ccccc1 (centres undefined),13.5 µM (inactive)
3,CCOc1ccc(Nc2cc(C)nc(-n3nc(C)cc3C)n2)cc1,3.32 µM
4,COc1cc(/C=N/Nc2ccc(Cl)c(C(=O)O)c2)ccc1OC(=O)c1cccs1,8.27 µM
5,CCCCn1c(O)c(/C=C2/C=CC=N2)c(=O)[nH]c1=O,1.17 µM
6,C(=C\c1ccccc1)/CSc1nc2ncccc2[nH]1,4.36 µM
7,NC(N)=Nc1nc(-c2ccccc2)c2ccccc2n1,12.8 µM (inactive)
8,Fc1ccc(-c2nnc(-c3ccc(F)cc3)o2)cc1,8.38 µM
9,COC(=O)[C@H](CC(C)C)NC(=O)NCCC1=CCCCC1,12.8 µM (inactive)
10,Cc1nc(-c2ccc(C(F)(F)F)cc2)sc1C(=O)NN,23.5 µM (inactive)
11,Cc1noc(C)c1COc1ccc(C(=O)Nc2ccccn2)cc1,24.6 µM (inactive)
12,OCC#CCSc1nnc(-c2ccc(Br)cc2)o1,0.33 µM
13,CCc1ccc(/C=N/NC(=O)c2ccccn2)cc1,24.8 µM (inactive)
14,O=C(N/N=C/c1cccc(F)c1)c1c(O)c2ccccc2[nH]c1=O,3.17 µM
15,Cc1ccc(OCCCCn2ccnc2)c([N+](=O)[O-])c1,28.5 µM (inactive)
16,CCOC(=O)c1c(C)nc2cc(C)ccn12,5.9 µM
17,CN1C(=O)CC(Sc2ccccc2C(=O)O)C1=O (centres undefined),23.6 µM (inactive)
18,O=C(c1ccc(Cl)cc1)N1N=C(c2ccccn2)CC1(O)C(F)(F)F (centres undefined),5.51 µM
19,COC(=O)COc1cccc(NC(=O)COc2ccccc2)c1,7.75 µM
20,O=C(N/N=C/c1cc([N+](=O)[O-])ccc1O)C1CCCCC1,1.97 µM
21,Cc1ccccc1NC(=O)c1nc[nH]c1C(=O)NCc1ccccc1,23.7 µM (inactive)
22,CCc1cc2c(=O)n(C(C)C(=O)OC3CCCCC3)cnc2s1 (centres undefined),16.6 µM (inactive)
23,Nc1ccc2nc3c(c(Cl)c2c1)CCCC3,13.4 µM (inactive)
24,O=C(COC(=O)c1cccc([N+](=O)[O-])c1)NCc1cccs1,25.7 µM (inactive)

row,SMILES,IC50
1,O=C(COC(=O)c1ccc(Br)o1)Nc1ncc([N+](=O)[O-])s1,14.4 µM (inactive)
2,COC(=O)COc1ccc2c(=O)c(-c3ccccc3)coc2c1,< 0.1 µM
3,O=C1C(Nc2ccccc2)=C/C(=N/S(=O)(=O)c2cccs2)c2ccccc21,12 µM (inactive)
4,COc1ccccc1-n1c(=O)oc2ccc(Cl)cc2c1=O,12 µM (inactive)
5,Cc1ccc(-n2cc(CNCCc3ncc(C)[nH]3)c(-c3ccc(F)cc3)n2)cc1,17.3 µM (inactive)
6,Cn1c(=O)c2c(=O)cc(NNC(=O)CC#N)[nH]c2n(C)c1=O,26.9 µM (inactive)
7,Nc1nonc1C(=O)N/N=C/c1ccc([N+](=O)[O-])o1,5.6 µM
8,N/C(=N\OC(=O)c1cccs1)c1ccccc1,24 µM (inactive)
9,O=C(Nc1cccnc1)c1ccc(-c2ccc(Cl)cc2)o1,5.13 µM
10,O=C(Nc1ccc(S(=O)(=O)N2CCOCC2)cc1)c1ccc([N+](=O)[O-])s1,1.59 µM
11,O=C(Nc1cccc2ccccc12)c1ccc([N+](=O)[O-])o1,2.11 µM
12,O=C(CC(=O)c1cc(Cl)ccc1O)c1ccccc1,2.65 µM
13,C/C(=N\NC(=O)c1cc2ccccc2cc1O)c1ccc(C)o1,2.04 µM
14,Cc1ccc(C2=NN(C)c3nc4ccccc4n3C2)cc1,18.7 µM (inactive)
15,CN(C)CC/C=C1/c2ccc(F)cc2Sc2ccc(Cl)cc21,8.11 µM
16,Nc1nc2ccccc2n1CCOc1ccc(Br)cc1,21.5 µM (inactive)
17,COc1ccc(C(=O)C2CCCN(C(=O)c3ccc(CSC)o3)C2)cc1F (centres undefined),42.2 µM (inactive)
18,COc1ccc(C(=O)Nc2nnc(C3=COCCO3)o2)cc1,7.69 µM
19,Cc1cccc(NCc2ccc([N+](=O)[O-])s2)c1,22.2 µM (inactive)
20,COc1ccc(C(=O)OCn2nnc3ccccc3c2=O)cc1[N+](=O)[O-],15.8 µM (inactive)
21,O=C(COc1ccccc1)NCCSCc1ccc(Cl)cc1,16.4 µM (inactive)
22,CC(=O)Nc1nc2ccccc2n1Cc1ccccc1Cl,14.1 µM (inactive)
23,CCCc1nnc(-c2ccc(OC)cc2)o1,1.24 µM
24,Cc1ccccc1NCC(=O)N/N=C\c1ccc([N+](=O)[O-])s1,3.57 µM

row,SMILES,IC50
1,S=C(Nc1ccc2c(c1)OCO2)Nc1ccc2c(c1)OCO2,12.8 µM (inactive)
2,COC(=O)COc1ccc(S(=O)(=O)N2CCCCCC2)cc1,4.19 µM
3,CCOCCOC(=O)c1ccc(NC(=O)C2COc3ccccc3O2)cc1 (centres undefined),4.16 µM
4,CN1CC(=O)NC1=NC(=O)C12CC3CC(CC(C3)C1)C2,4.08 µM
5,CSc1nnc(Cc2ccc3c(c2)OCO3)o1,7.56 µM
6,Cc1nonc1C(=O)N/N=C/c1ccc([N+](=O)[O-])o1,10.1 µM (inactive)
7,CCCNC(=O)COC(=O)c1cc2c(=O)n3ccccc3nc2s1,23.6 µM (inactive)
8,Cc1ccc(C2=N/C(=C\c3cccnc3)C(=O)O2)cc1,6.58 µM
9,N#CC1=C(N)Oc2n[nH]c(-c3cccnc3)c2C1c1ccc([N+](=O)[O-])o1 (centres undefined),5.62 µM
10,CCCCSc1nnc(-c2cc(Br)ccc2N)c(=O)[nH]1,12.6 µM (inactive)
11,C=Cc1cccc(NC(=O)COc2ccccc2)c1,5.75 µM
12,CCCCCCOC(=O)C(C#N)c1nc2ccccc2nc1N1CCN(CC)CC1 (centres undefined),13.9 µM (inactive)
13,CCOC(=O)C1CCCN(Cc2ccc(OCc3ccccc3)cc2)C1 (centres undefined),21.8 µM (inactive)
14,CCc1ccc(N2CCN(CCNC(=O)Nc3ccc(OC)cc3)CC2)cc1,17.7 µM (inactive)
15,Nc1nnnn1/N=C/C(Br)=C/c1ccccc1,13.5 µM (inactive)
16,O=[N+]([O-])c1cc([N+](=O)[O-])c2cc3ccccc3nc2c1,< 0.1 µM
17,O=C(COc1c(Br)cc(Br)c2cccnc12)N1CCCCC1,9.93 µM
18,O=C(Nc1ccc(-c2nc3ccccc3c(=O)o2)cc1)c1ccco1,0.35 µM
19,COc1ccccc1NC(=O)C(=O)/C=C(\O)c1ccccc1,15.4 µM (inactive)
20,O=C(Nc1ccccc1F)c1ccc([N+](=O)[O-])s1,0.78 µM
21,O=C(COC(=O)c1ccc([N+](=O)[O-])s1)Nc1ccc(Cl)cn1,2.37 µM
22,CCCCOC(=O)c1ccc(NC(=O)c2nn(C)cc2Br)cc1,20.4 µM (inactive)
23,Clc1ccc(SCCOCCN2CCc3ccccc3C2)cc1,13.5 µM (inactive)
24,O=C(NC1=NCCS1)c1ccc(-c2ccc(Cl)cc2)o1,11.9 µM (inactive)

row,SMILES,IC50
1,CSc1ccccc1NC(=O)c1cc(C(C)C)on1,22.2 µM (inactive)
2,CCc1ccc(N2C(=O)CC(N3CCC(C(=O)OC)CC3)C2=O)cc1 (centres undefined),34.6 µM (inactive)
3,O=C(NCCc1ccccc1)c1nc(-c2cccs2)no1,2.21 µM
4,Cc1ccc(NCCC(=O)c2cccs2)cc1Cl,3.56 µM
5,Cc1ccc(S(=O)(=O)/N=C(\CCl)N2CCOCC2)cc1,11.9 µM (inactive)
6,Nc1c(Cl)cc(Cl)cc1C(=O)OCC(=O)N1CCCC1,2.46 µM
7,Brc1ccc(OCCCCN2CCCCC2)cc1,41.7 µM (inactive)
8,CC(C)(C)c1cc(CN2CCC(O)CC2)cc(C(C)(C)C)c1O,6.92 µM
9,CCCNC(=O)N1CCC(c2ccc3c(c2)OCO3)CC1,4.71 µM
10,CS(=O)(=O)Cc1nc2ccccc2oc1=O,3.18 µM
11,Cc1ccc(S(=O)(=O)Nc2cccc3ncccc23)s1,5.34 µM
12,COc1ccc([N+](=O)[O-])c(S(=O)(=O)c2ccc(Cl)cc2)n1,1 µM
13,Cc1ccc2nc(C)c3c(c2c1)SCC3,11.6 µM (inactive)
14,CCCCN(C)S(=O)(=O)c1ccc(C(=O)Nc2nnc(-c3ccco3)o2)cc1,23 µM (inactive)
15,OC(CNCC(c1ccc(Cl)cc1Cl)c1c[nH]c2ccccc12)c1ccccc1 (centres undefined),10.9 µM (inactive)
16,O=C(Oc1ccccc1)c1cc2ccccc2o1,6.73 µM
17,Cc1cccc(OCC(=O)NNC(=O)c2cc3ccccc3oc2=O)c1,6.13 µM
18,CC(Cc1ccccc1Sc1ccccc1)N(C)C (centres undefined),26 µM (inactive)
19,Cc1ccc(NC(=O)ON=C2CCCC2)cc1,1.97 µM
20,O=C(Oc1c(-c2ccco2)oc2ccccc2c1=O)c1cccnc1,11.5 µM (inactive)
21,O=C(N/N=C/c1ccc([N+](=O)[O-])o1)c1sc2ccccc2c1Cl,2.9 µM
22,Cc1cc(C(=O)COc2cccc3cccnc23)c(C)n1C,5.1 µM
23,CN(C)CC/C=C1\c2cc(Cl)ccc2Sc2cc(F)c(F)cc21,20.2 µM (inactive)
